Where “and” joins values, the source holds several entries; their conditions need not be identical. Identical values can stand only once.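 Tested at 5 concentrations; 48 h exposure; 96-well plates; endpoints linearly interpolated, else capped at highest concentration. GI50 = concentration required for 50% inhibition of growth. TGI marks complete inhibition of growth.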
Assays:
Assay in all cases: NCI anticancer screen, dose series, 48 h
A549 NSCLC = system: A549 NSCLC
ACHN renal = system: ACHN renal
CCRF-CEM leukemia = system: CCRF-CEM leukemia
HOP-62 NSCLC = system: HOP-62 NSCLC
HT29 colon = system: HT29 colon
LOX IMVI melanoma = system: LOX IMVI melanoma
MALME-3M melanoma = system: MALME-3M melanoma
PC-3 prostate = system: PC-3 prostate
SN12C renal = system: SN12C renal
SW-620 colon = system: SW-620 colon

SMILES | GI50 (A549 NSCLC) | TGI (A549 NSCLC) | GI50 (ACHN renal) | TGI (ACHN renal) | GI50 (CCRF-CEM leukemia) | TGI (CCRF-CEM leukemia) | GI50 (HOP-62 NSCLC) | TGI (HOP-62 NSCLC) | GI50 (HT29 colon) | GI50 (LOX IMVI melanoma) | TGI (LOX IMVI melanoma) | GI50 (MALME-3M melanoma) | TGI (MALME-3M melanoma) | GI50 (PC-3 prostate) | TGI (PC-3 prostate) | GI50 (SN12C renal) [µM] | TGI (SN12C renal) | GI50 (SW-620 colon) [µM] | TGI (HT29 colon) | TGI (SW-620 colon)
COC(=O)[C@H](Cc1c[nH]c2ccccc12)NC(=O)[C@@H](OC)[C@@H]1Cc2cc3cc(OC4CC(OC5CC(O)C(O)C(C)O5)C(O)C(C)O4)c(C)c(O)c3c(O)c2C(=O)[C@H]1OC1CC(OC2CC(OC3CC(C)(O)C(O)C(C)O3)C(O)C(C)O2)C(O)C(C)O1 (stereo partly drawn) | 0.00873 µM | > 16.5 µM | 0.0475 µM | 0.907 µM | 0.0064 µM | > 6.28 µM | 0.00771 µM | 5.53 µM | 0.00611 µM | 0.00391 µM | 0.0111 µM | 0.0039 µM | 0.0184 µM | 0.0088 µM | 0.412 µM | 0.00624 | 7.42 µM | 0.00863 |  | 
Cn1cnc([N+](=O)[O-])c1[Se]c1nc(N)nc2c1ncn2C1OC(CO)C(O)C1O (stereo not drawn) |  | > 100 µM |  | > 100 µM |  | > 100 µM |  | > 100 µM |  |  | > 100 µM |  | > 100 µM |  | > 100 µM |  | > 100 µM |  | > 100 µM | > 100 µM
COc1ccc(-n2cc(-c3cc(OC)c(OC)c(OC)c3)[nH]c2=O)cc1Cl | > 100 µM | > 100 µM | > 100 µM | > 100 µM | > 100 µM | > 100 µM | 51.7 µM | > 100 µM | > 100 µM | > 100 µM | > 100 µM | > 100 µM | > 100 µM | > 100 µM | > 100 µM | > 100 | > 100 µM | > 100 | > 100 µM | > 100 µM
C=C(C)C1CCC2(C(=O)O)CCC3(C)C(CCC4C5(C)CCC(OC(=O)NCc6ccccc6)C(C)(C)C5CCC43C)C12 (stereo not drawn) | 0.961 µM | > 100 µM | 3.29 µM | > 100 µM | 2.36 µM | > 100 µM | 3.87 µM | > 100 µM | 3.42 µM | 4.84 µM | > 100 µM | 5.5 µM | 54.1 µM | 1.2 µM | 95.7 µM | 7.11 | > 100 µM | 2.56 | 30.4 µM | > 100 µM
Clc1ccc(-c2c(C3=NCCCN3)nnn2-c2ccc(Cl)cc2)cc1 |  | > 100 µM |  | > 100 µM |  | > 83.3 µM |  | > 82.6 µM |  |  | 53 µM |  | 33 µM |  | > 68.4 µM |  | > 100 µM |  | 64.4 µM | > 76.5 µM
Cc1ccc(C(=O)Nc2ccc(CN3CCN(C)CC3)c(C(F)(F)F)c2)cc1C#Cc1cnc(N)c2ccccc12 | 0.447 µM | 1.26 µM | 0.133 µM | 0.631 µM | 0.622 µM | 3.04 µM | 0.849 µM | 2.13 µM | 0.367 µM | 0.509 µM | 1.09 µM | 0.248 µM | 0.951 µM | 0.703 µM | 1.72 µM | 0.191 | 0.917 µM | 0.41 | 1.41 µM | 1.14 µM
COc1cc2c(c(OC)c1OC)-c1c(cc3c(c1OC)OCO3)C1OC2C(C)C1C (stereo not drawn) (tested in a mixture with another compound) |  | > 100 µM |  | > 100 µM |  | > 100 µM |  | > 100 µM |  |  | > 100 µM |  | > 100 µM |  | > 100 µM |  | > 100 µM |  | > 100 µM | > 100 µM
CCc1oc2ccccc2c1C(=O)c1cc(I)c(O)c(I)c1 | 3.61 µM | 17.6 µM | 4.87 µM | 18.2 µM | 2.05 µM | 15.4 µM | 5.85 µM | 20.3 µM | 3.61 µM | 3.51 µM | 17.1 µM | 1.41 µM | 7.9 µM | 3.75 µM | 19.5 µM | 4.18 | 17.8 µM | 2.39 | 14.5 µM | 12.6 µM
CON(C)C(=O)N1N=C(c2cc(F)ccc2F)SC1(CCCN)c1ccccc1 (stereo not drawn) | 0.024 µM and < 0.01 µM | 17.1 µM and 18.2 µM | 7.79 µM and 4.91 µM | 22.5 µM and 21.8 µM | 0.0115 µM and < 0.01 µM | 22.4 µM and 21.6 µM | 0.0545 µM and < 0.01 µM | 18.4 µM and 15.7 µM | 0.0301 µM and < 0.01 µM | 0.024 µM and < 0.01 µM | 17.5 µM and 16.4 µM | 13.3 µM and 10.5 µM | 31.6 µM and 28.3 µM | 0.0179 µM and < 0.01 µM | 15 µM and 14.2 µM | < 0.01 | 16 µM and 16.1 µM | < 0.01 | 5.05 µM and 10.8 µM | 15.6 µM and 16 µM
O=C1/C(=C/c2ccc(O)cc2)CSc2ccc(Cl)cc21 | 32 µM | > 100 µM | 11.9 µM | 24.3 µM | 0.58 µM | > 100 µM | 14.2 µM | 45 µM | 16.5 µM | 2.63 µM | 8.75 µM | 16.6 µM | 38 µM | 13.1 µM | 53.8 µM | 14 | 46.9 µM | 1.99 | 89.7 µM | 4.04 µM
C=C1C(=O)O[C@H]2[C@H]1CC/C(COC(=O)c1cc3ccccc3s1)=C\CC[C@@]1(C)O[C@@H]21 | 2.04 µM | 4.4 µM | 1.5 µM | 2.93 µM | 0.403 µM | 2.45 µM | 1.81 µM | 3.42 µM | 0.499 µM | 0.206 µM | 0.509 µM | 1.82 µM | 3.75 µM | 1.83 µM | 3.59 µM | 2.06 | 4.61 µM | 0.518 | 1.84 µM | 2.97 µM
Fc1ccc(-c2nn3ncccc3c2-c2ccnc(Nc3ccc4c(c3)OCCO4)n2)cc1 | 2.71 µM | > 25 µM | 1.16 µM | > 25 µM | 6.22 µM | > 25 µM | 15.2 µM | > 25 µM | 0.933 µM | 3.38 µM | 13.7 µM | 14.1 µM | > 25 µM | 7.32 µM | > 25 µM | 4.68 | > 25 µM | 5.82 | > 13.6 µM | > 18.9 µM
CC1(C)N=C(N)N=C(N)N1c1ccc(OCc2ccc(S(=O)(=O)F)c(Cl)c2)c(Cl)c1 | 0.499 µM | > 100 µM | 5.48 µM | > 100 µM | 1.06 µM | > 100 µM | 7.93 µM | > 100 µM | 0.845 µM | 0.448 µM | > 100 µM | 1.97 µM | > 100 µM | 0.502 µM | > 100 µM | 0.558 | > 100 µM | 0.424 | > 100 µM | > 100 µM
COc1cc2c3c(n(CCCCOC(=O)C(Cl)(Cl)Cl)c(=O)c2cc1OC)-c1cc2c(cc1C3=O)OCO2 | > 100 µM | > 100 µM | 14.2 µM | 59.5 µM | 10.5 µM | > 100 µM | 29.3 µM | > 100 µM | > 100 µM | 35.9 µM | > 100 µM | > 100 µM | > 100 µM | > 100 µM | > 100 µM | 43.7 | > 100 µM | 85.5 | > 100 µM | > 100 µM
CCOC(=O)c1c(C)nc2c(c1N)/C(=C/c1ccc(OC)cc1)C(=O)N2Cc1ccc(F)cc1 | 0.385 µM | 2.39 µM | 0.137 µM | 0.529 µM | 0.109 µM | 0.514 µM | 0.497 µM | 2.17 µM | 0.171 µM | 0.164 µM | 0.34 µM | 0.185 µM | 0.44 µM | 0.277 µM | 1 µM | 0.244 | 0.75 µM | 0.14 | 0.587 µM | 0.349 µM
C/C(=N\Nc1ccc(Cl)cn1)c1ccccn1 | 0.364 µM | > 100 µM | 0.042 µM | 27.1 µM | 0.0273 µM | > 100 µM | 0.167 µM | > 42.1 µM | < 0.0419 µM | 0.113 µM | > 24.2 µM | 0.111 µM | 44.1 µM | 0.0464 µM | > 100 µM | 0.134 | > 100 µM | 0.0622 | > 59.9 µM | > 100 µM
COc1cc(NS(=O)(=O)c2ccc(-c3cnc(C4CC4)o3)cc2)ccc1F | 0.826 µM | > 45.8 µM | 0.594 µM | 46 µM | 0.326 µM | > 100 µM | 0.646 µM | 18.8 µM | 0.268 µM | 0.534 µM | 17.9 µM | 0.56 µM | 33.9 µM | 0.329 µM | 17 µM | 0.546 | 18.1 µM | 0.287 | 12.5 µM | > 61.3 µM
COc1ccccc1Cn1cc2c(c1-c1ccccc1)CCc1cnoc1-2 | 4.31 µM | > 100 µM | 5.27 µM | > 100 µM | 2.85 µM | > 100 µM | 3.73 µM | > 100 µM | 2.02 µM | 3.04 µM | > 100 µM | 1.39 µM | > 100 µM | 3.75 µM | > 100 µM | 6.61 | > 100 µM | 1.83 | 7.3 µM | > 100 µM
O=C1OC(c2ccco2)=N/C1=C\c1cccc([N+](=O)[O-])c1 |  | > 100 µM |  | > 100 µM |  | > 100 µM |  | > 100 µM |  |  | > 100 µM |  | > 100 µM |  | > 100 µM |  | > 100 µM |  | > 100 µM | > 100 µM

Reference: PubChem BioAssay (NCI)
